Drawing on US20240218022A1, “ANTI-VISTA MACROCYCLIC PEPTIDES AND COMPOSITIONS” (BRISTOL-MYERS SQUIBB COMPANY, priority 2022, published 2024), this text covers IC50 for 13 compounds.

Starred links: 1 amine or outer side, 2 acyl side, 3 side chain; linkers in the order of their positions; H or OH if unused. Positions of bridges follow the written chain, without caps; N, C: chain ends. Non-standard residues stand in square brackets, D forms with d. Residues, ends and D or L forms follow the SMILES beside them. ξ: configuration not given here. Morpholine(3S-CO) = O=C(O)[C@@H]1COCCN1; Phe(3-Me) = Cc1cccc(C[C@H](N)C(=O)O)c1; γGlu = O=C(O)[C@H](CCC(=O)[*:2])N[*:1]; 2Nal = N[C@@H](Cc1ccc2ccccc2c1)C(=O)O; βAsp = O=C(O)[C@H](CC(=O)[*:2])N[*:1]; Pro(4ξ-F) = O=C(O)[C@@H]1CC(F)CN1; Ahp(2) = CCCCC[C@H](N)C(=O)O; NMeNle = CCCC[C@H](NC)C(=O)O; Tle = CC(C)(C)[C@H](N)C(=O)O; NHexGly = CCCCCCNCC(=O)O; Nle = CCCC[C@H](N)C(=O)O; Aun = NCCCCCCCCCCC(=O)O; Dab = NCC[C@H](N)C(=O)O; AEEA = NCCOCCOCC(=O)O

The target in one assay is T1, mouse VISTA (mVISTA) (Mus musculus, UniProt Q9D659).
T1 construct: expressed in transfected cells; host or cells: Human embryonic kidney 293T cells
T1 sequence (Q9D659 33-308): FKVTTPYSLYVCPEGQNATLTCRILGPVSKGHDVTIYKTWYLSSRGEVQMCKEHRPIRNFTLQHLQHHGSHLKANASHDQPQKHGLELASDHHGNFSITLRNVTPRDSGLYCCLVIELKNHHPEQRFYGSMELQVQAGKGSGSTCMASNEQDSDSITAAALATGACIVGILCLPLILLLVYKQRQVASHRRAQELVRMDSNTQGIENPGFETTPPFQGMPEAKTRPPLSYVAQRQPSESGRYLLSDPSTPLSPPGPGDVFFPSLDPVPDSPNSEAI
The assay is described as follows: Cell-Based Binding High-Content Assay For mVISTA (HC CBA mVISTA). As to conditions: cell-based binding high-content assay; read-out: HC CBA mVISTA IC50. In a few lines: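 293T cells expressing mouse VISTA, with compounds added either after seeding ("no wash") or before seeding and then washed out after 1 h. Biotinylated peptide 2 nM for 30 min at room temperature, then detection with Alexa 647–streptavidin. After fixation with Hoechst stain, plates were high-content imaged; IC50 from four-parameter logistic fit.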
For the compound `CCCCCCN1CC(=O)N[C@@H](Cc2ccc(O)cc2)C(=O)N[C@@H](CC(C)C)C(=O)N[C@@H](CC(N)=O)C(=O)N[C@@H](CCCNC(=N)N)C(=O)N(C)[C@@H](CCCC)C(=O)N[C@@H](CCCCC)C(=O)N2CCC[C@H]2C(=O)N[C@@H](C(C)(C)C)C(=O)N[C@@H](CO)C(=O)N[C@H](C(=O)N[C@@H](CCC(=O)N[C@@H](CCN)C(=O)NCCCCCCCCCCC(=O)O)C(=O)O)CSCC(=O)N[C@@H](Cc2ccccc2)C(=O)N[C@@H](Cc2ccc(O)cc2)C(=O)N[C@@H](CC(=O)O)C1=O` [Example 2323] ({CH2CO}-FYD[NHexGly]YLNR[NMeNle][Ahp(2)]P[Tle]SC[γGlu][Dab][Aun]-OH; thioether N-14), the IC50 (in general, the concentration at which inhibition is half-maximal) amounted to 33.9 nM.

Take `CCCCCCN1CC(=O)N[C@@H](Cc2ccc(O)cc2)C(=O)N[C@@H](CCCC)C(=O)N[C@@H](CC(N)=O)C(=O)N[C@@H](CCCNC(=N)N)C(=O)N(C)[C@@H](CCCC)C(=O)N[C@@H](CCCCC)C(=O)N2CCC[C@H]2C(=O)N[C@@H](C(C)(C)C)C(=O)N[C@@H](CO)C(=O)N[C@H](C(=O)NCC(=O)N[C@@H](CC(=O)NCCOCCOCC(=O)NCCCCCCCCCCC(=O)O)C(=O)O)CSCC(=O)N[C@@H](Cc2ccccc2)C(=O)N[C@@H](Cc2cccc(C)c2)C(=O)N[C@@H](CC(=O)O)C1=O` [Example 2327] ({CH2CO}-F[Phe(3-Me)]D[NHexGly]Y[Nle]NR[NMeNle][Ahp(2)]P[Tle]SCG[βAsp][AEEA][Aun]-OH; thioether N-14): the IC50 came out at 33.7 nM.

Staying with this assay, now noted: read-out: HC CBA mVISTA IC50.
On to `CCCCCCN1CC(=O)N[C@@H](Cc2ccc(O)cc2)C(=O)N[C@@H](CCCC)C(=O)N[C@@H](CC(N)=O)C(=O)N[C@@H](CCCNC(=N)N)C(=O)N(C)[C@@H](CCCC)C(=O)N[C@@H](CCCCC)C(=O)N2CCOC[C@H]2C(=O)N[C@@H](C(C)C)C(=O)N[C@@H](CO)C(=O)N[C@H](C(=O)N[C@@H](CC(=O)NCCOCCOCC(=O)NCCCCCCCCCCC(=O)O)C(=O)O)CSCC(=O)N[C@@H](Cc2ccccc2)C(=O)N[C@@H](Cc2c[nH]c3ccccc23)C(=O)N[C@@H](CC(=O)O)C1=O` [Example 2193] ({CH2CO}-FWD[NHexGly]Y[Nle]NR[NMeNle][Ahp(2)][Morpholine(3S-CO)]VSC[βAsp][AEEA][Aun]-OH; thioether N-14), for which the IC50 amounted to 16.1 nM.

As to `CCCCCCN1CC(=O)N[C@@H](Cc2ccc(O)cc2)C(=O)N[C@@H](CCCC)C(=O)N[C@@H](CC(N)=O)C(=O)N[C@@H](CCCNC(=N)N)C(=O)N(C)[C@@H](CCCC)C(=O)N[C@@H](CCCCC)C(=O)N2CC(F)C[C@H]2C(=O)N[C@@H](C(C)(C)C)C(=O)N[C@@H](CO)C(=O)N[C@H](C(=O)N[C@@H](CC(=O)NCCOCCOCC(=O)NCCCCCCCCCCC(=O)O)C(=O)O)CSCC(=O)N[C@@H](Cc2ccccc2)C(=O)N[C@@H](Cc2c[nH]c3ccccc23)C(=O)N[C@@H](CC(=O)O)C1=O` (stereo partly shown) [Example 2194] ({CH2CO}-FWD[NHexGly]Y[Nle]NR[NMeNle][Ahp(2)][Pro(4ξ-F)][Tle]SC[βAsp][AEEA][Aun]-OH; thioether N-14), the IC50 was 38.6 nM.

As to `CCCCCCN1CC(=O)N[C@@H](Cc2ccc(O)cc2)C(=O)N[C@@H](CCCC)C(=O)N[C@@H](CC(N)=O)C(=O)N[C@@H](CCCNC(=N)N)C(=O)N(C)[C@@H](CCCC)C(=O)N[C@@H](CCCCC)C(=O)N2CCC[C@H]2C(=O)N[C@@H](C(C)(C)C)C(=O)N[C@@H](CO)C(=O)N[C@H](C(=O)N[C@@H](CC(=O)NCCOCCOCC(=O)NCCCCCCCCCCC(=O)O)C(=O)O)CSCC(=O)N[C@@H](Cc2ccc3ccccc3c2)C(=O)N[C@@H](Cc2ccc(O)cc2)C(=O)N[C@@H](CC(=O)O)C1=O` [Example 2195] ({CH2CO}-[2Nal]YD[NHexGly]Y[Nle]NR[NMeNle][Ahp(2)]P[Tle]SC[βAsp][AEEA][Aun]-OH; thioether N-14), the IC50 is 30.3 nM.

On to `CCCCCCN1CC(=O)N[C@@H](Cc2ccc(O)cc2)C(=O)N[C@@H](CCCC)C(=O)N[C@@H](CC(N)=O)C(=O)N[C@@H](CCCNC(=N)N)C(=O)N(C)[C@@H](CCCC)C(=O)N[C@@H](CCCCC)C(=O)N2CC(F)C[C@H]2C(=O)N[C@@H](C(C)C)C(=O)N[C@@H](CO)C(=O)N[C@H](C(=O)N[C@@H](CC(=O)NCCOCCOCC(=O)NCCCCCCCCCCC(=O)O)C(=O)O)CSCC(=O)N[C@@H](Cc2ccccc2)C(=O)N[C@@H](Cc2c[nH]c3ccccc23)C(=O)N[C@@H](CC(=O)O)C1=O` (stereo partly shown) [Example 2196] ({CH2CO}-FWD[NHexGly]Y[Nle]NR[NMeNle][Ahp(2)][Pro(4ξ-F)]VSC[βAsp][AEEA][Aun]-OH; thioether N-14), for which the IC50 was 28.4 nM.

As for `CCCCCCN1CC(=O)N[C@@H](Cc2ccc(O)cc2)C(=O)N[C@@H](CCCC)C(=O)N[C@@H](CC(N)=O)C(=O)N[C@@H](CCCNC(=N)N)C(=O)N(C)[C@@H](CCCC)C(=O)N[C@@H](CCCCC)C(=O)N2CCC[C@H]2C(=O)N[C@@H](C(C)(C)C)C(=O)N[C@@H](CO)C(=O)N[C@H](C(=O)N[C@@H](CC(=O)NCCOCCOCC(=O)NCCCCCCCCCCC(=O)O)C(=O)O)CSCC(=O)N[C@@H](Cc2cccc(C)c2)C(=O)N[C@@H](Cc2c[nH]c3ccccc23)C(=O)N[C@@H](CC(=O)O)C1=O` [Example 2197] ({CH2CO}-[Phe(3-Me)]WD[NHexGly]Y[Nle]NR[NMeNle][Ahp(2)]P[Tle]SC[βAsp][AEEA][Aun]-OH; thioether N-14), the IC50 was 32.6 nM.

As for `CCCCCCN1CC(=O)N[C@@H](Cc2ccc(O)cc2)C(=O)N[C@@H](CCCC)C(=O)N[C@@H](CC(N)=O)C(=O)N[C@@H](CCCNC(=N)N)C(=O)N[C@@H](CC(C)C)C(=O)N[C@@H](CCCCC)C(=O)N2CCC[C@H]2C(=O)N[C@@H](C(C)C)C(=O)N[C@@H](CC(=O)O)C(=O)N[C@H](C(=O)NCCOCCOCC(=O)N[C@@H](CC(=O)NCCOCCOCC(=O)NCCCCCCCCCCC(=O)O)C(=O)O)CSCC(=O)N[C@@H](Cc2cccc(C)c2)C(=O)N[C@@H](Cc2c[nH]c3ccccc23)C(=O)N[C@@H](CC(=O)O)C1=O` [Example 2198] ({CH2CO}-[Phe(3-Me)]WD[NHexGly]Y[Nle]NRL[Ahp(2)]PVDC[AEEA][βAsp][AEEA][Aun]-OH; thioether N-14), the IC50 came to 15.2 nM.

For `CCCCCCN1CC(=O)N[C@@H](Cc2ccc(O)cc2)C(=O)N[C@@H](CCCCC)C(=O)NCC(=O)N[C@@H](CCCNC(=N)N)C(=O)N[C@@H](CC(C)C)C(=O)N[C@@H](CCCCC)C(=O)N2CCC[C@H]2C(=O)N[C@@H](C(C)C)C(=O)N[C@@H](CO)C(=O)N[C@H](C(=O)NCCOCCOCC(=O)N[C@@H](CC(=O)NCCOCCOCC(=O)NCCCCCCCCCCC(=O)O)C(=O)O)CSCC(=O)N[C@@H](Cc2ccccc2)C(=O)N[C@@H](Cc2ccc(O)cc2)C(=O)N[C@@H](CC(=O)O)C1=O` [Example 2199] ({CH2CO}-FYD[NHexGly]Y[Ahp(2)]GRL[Ahp(2)]PVSC[AEEA][βAsp][AEEA][Aun]-OH; thioether N-14), the IC50 was 18.3 nM.

With `CCCCCCN1CC(=O)N[C@@H](Cc2ccc(O)cc2)C(=O)N[C@@H](CCCC)C(=O)N[C@@H](CC(N)=O)C(=O)N[C@@H](CCCNC(=N)N)C(=O)N(C)[C@@H](CCCC)C(=O)N[C@@H](CCCCC)C(=O)N2CCC[C@H]2C(=O)N[C@@H](C(C)C)C(=O)N[C@@H](CC(=O)O)C(=O)N[C@H](C(=O)NCCOCCOCC(=O)N[C@@H](CC(=O)NCCOCCOCC(=O)NCCCCCCCCCCC(=O)O)C(=O)O)CSCC(=O)N[C@@H](Cc2ccc3ccccc3c2)C(=O)N[C@@H](Cc2c[nH]c3ccccc23)C(=O)N[C@@H](CC(=O)O)C1=O` [Example 2200] ({CH2CO}-[2Nal]WD[NHexGly]Y[Nle]NR[NMeNle][Ahp(2)]PVDC[AEEA][βAsp][AEEA][Aun]-OH; thioether N-14), the IC50 was found to be 16.5 nM.

As to `CCCCCCN1CC(=O)N[C@@H](Cc2ccc(O)cc2)C(=O)N[C@@H](CC(C)C)C(=O)N[C@@H](CC(N)=O)C(=O)N[C@@H](CCCNC(=N)N)C(=O)N[C@@H](CC(C)C)C(=O)N[C@@H](CCCCC)C(=O)N2CCC[C@H]2C(=O)N[C@@H](C(C)C)C(=O)N[C@@H](C(C)C)C(=O)N[C@H](C(=O)NCCOCCOCC(=O)N[C@@H](CC(=O)NCCOCCOCC(=O)NCCCCCCCCCCC(=O)O)C(=O)O)CSCC(=O)N[C@@H](Cc2ccccc2)C(=O)N[C@@H](Cc2ccc(O)cc2)C(=O)N[C@@H](CC(=O)O)C1=O` [Example 2201] ({CH2CO}-FYD[NHexGly]YLNRL[Ahp(2)]PVVC[AEEA][βAsp][AEEA][Aun]-OH; thioether N-14), the half-maximal inhibitory concentration (IC50) was found to be 20.9 nM.

In the case of `CCCCCCN1CC(=O)N[C@@H](Cc2ccc(O)cc2)C(=O)N[C@@H](CCCC)C(=O)N[C@@H](CC(N)=O)C(=O)N[C@@H](CCCNC(=N)N)C(=O)N(C)[C@@H](CCCC)C(=O)N[C@@H](CCCCC)C(=O)N2CCC[C@H]2C(=O)N[C@@H](C(C)C)C(=O)N[C@@H](CC(=O)O)C(=O)N[C@H](C(=O)NCCOCCOCC(=O)N[C@@H](CC(=O)NCCOCCOCC(=O)NCCCCCCCCCCC(=O)O)C(=O)O)CSCC(=O)N[C@@H](Cc2ccccc2)C(=O)N[C@@H](Cc2c[nH]c3ccccc23)C(=O)N[C@@H](CC(=O)O)C1=O` [Example 2204] ({CH2CO}-FWD[NHexGly]Y[Nle]NR[NMeNle][Ahp(2)]PVDC[AEEA][βAsp][AEEA][Aun]-OH; thioether N-14), the IC50 worked out at 14.9 nM.

As to `CCCCCCN1CC(=O)N[C@@H](Cc2ccc(O)cc2)C(=O)N[C@@H](CC(C)C)C(=O)N[C@@H](CC(=O)O)C(=O)N[C@@H](CCCNC(=N)N)C(=O)N(C)[C@@H](CCCC)C(=O)N[C@@H](CCCCC)C(=O)N2CCC[C@H]2C(=O)N[C@@H](C(C)(C)C)C(=O)N[C@@H](CC(N)=O)C(=O)N[C@H](C(=O)NCCOCCOCC(=O)N[C@@H](CC(=O)NCCOCCOCC(=O)NCCCCCCCCCCC(=O)O)C(=O)O)CSCC(=O)N[C@@H](Cc2ccccc2)C(=O)N[C@@H](Cc2cccc(C)c2)C(=O)N[C@@H](CC(=O)O)C1=O` [Example 2212] ({CH2CO}-F[Phe(3-Me)]D[NHexGly]YLDR[NMeNle][Ahp(2)]P[Tle]NC[AEEA][βAsp][AEEA][Aun]-OH; thioether N-14), the IC50 came out at 34.9 nM.
